Measured values: patent publication US6339078B1, “Methods of prevention and treatment of ischemic damage” (University of Florida Research Foundation, Inc., priority 1999, dated 2002)
“Also recorded” adds a separate entry of the source.

Legend:
[1] = test system: ovariectomized rats, ischemia induced by middle cerebral artery occlusion (MCAO); test: Ischemic area in brain slices after MCAO, estrogen pretreatment; assay type: in vivo, rat; conditions: for reduction of ischemic area vs sham: Silastic tube 24 h prior to MCAO, sacrifice 24 h after MCAO
[2] = test system: ovariectomized rats, ischemia induced by middle cerebral artery occlusion (MCAO); test: Ischemic area in brain slices after MCAO, estrogen post-treatment at 40 or 90 minutes; assay type: in vivo, rat; conditions: administered 90 minutes after MCAO
[3] = test system: ovariectomized rats, ischemia induced by middle cerebral artery occlusion (MCAO); test: Ischemic lesion volume (TTC) after MCAO, post-treatment at 0.5-4 hours; assay type: in vivo, rat; conditions: iv 100 μg/kg HPCD-complexed plus Silastic pellet at 0.5, 1, 2, or 3 hours post-occlusion; 48 hours after MCAO
[4] = test system: primary rat brain capillary endothelial cells (BCEC); test: BCEC mortality under hypoglycemia (Trypan blue); assay type: cell-based; conditions: 2 nM; normal glucose 200 mg %
Experimental: Hypoglycemia experiments were undertaken. […] The glucose concentration of the culture media was then adjusted from 20 mg % to 200 mg % by adding appropriate amount of D-(+)-glucose to the glucose-free media and monitored by Glucose and L-Lactate Analyzer (YSI model 2300 STAT plus, YSI, Inc., Yellow Springs, Ohio). The hypoglycemic cultures were maintained for 24 hours or 48 hours prior to staining with Trypan blue. Cell mortality was counted using Trypan blue staining method. Cell death percentage was calculated as dead cell/alive cell×100%. Statistical methods used included two-way analysis of variance, applied to determine the significance of the difference among the experimental groups. Kruskal-Wallis nonparametric analysis was used for data presented as percentage. […] P<0.05 was considered significant.

[5] = Blood levels after single subcutaneous bolus injection in corn oil (radioimmunoassay); assay type: in vivo, male Sprague-Dawley rats; conditions: 100 μg/kg sc in corn oil
Experimental: The drug was dissolved in corn oil at 100 μg/ml and the final dosage delivered was 100 μg/kg. […] Venous blood was collected into heparinized tubes, centrifuged and the plasma was collected and frozen. Levels of 17β-estradiol were determined using a commercially supplied radioimmunoassay kit.

[6] = test system: primary rat brain capillary endothelial cells (BCEC); test: BCEC mortality under combined anoxia and hypoglycemia (Trypan blue); conditions: 2 nM; 100 mg % hypoglycemia and anoxia 2 hours
Experimental: Cell media contained 200 mg % or 100 mg % glucose. Culture dishes containing BCEC were placed in either an incubator or a nitrogen filled chamber for two hours. Trypan blue staining was used to distinguish live cells from dead cells. Two cell countings at two different hemacytometer squares were averaged. Mean±SEM are depicted (n=8.12). *<0.05 vs. corresponding vehicle control.
Nitrogen gas was influxed to replace the oxygen inside the chamber. The chamber was sealed and placed in the incubator for four hours for nonhypoglycemic cultures and 2 hours for hypoglycemic cultures.
Cell mortality was counted using Trypan blue staining method. Cell death percentage was calculated as dead cell/alive cell×100%.
Statistical methods used included two-way analysis of variance, applied to determine the significance of the difference among the experimental groups. Kruskal-Wallis nonparametric analysis was used for data presented as percentage. […] P<0.05 was considered significant.

Row | SMILES | reduction of ischemic area vs sham ([1]; slice C) | reduction of ischemic area vs sham ([1]; slice D) | reduction of ischemic area vs sham ([1]; slice E) | protective effect on ischemic area (in words) ([1]; tissue slices A-E, sustained subcutaneous delivery initiated 24 hours prior) | ischemic area, percent of cross-sectional area of brain sections evaluated ([1]; pretreatment 24 h prior to MCAO, 3 brain slices, sham 25.6±5.7%) | protective effect on ischemic area (in words) ([1]; tissue slices A-D, subcutaneous injection two hours prior to ischemic event) | reduction of ischemic area [2] | protection, ischemic lesion volume (in words) [3] | difference in % cell death with and without estrogen (in words) [4] | blood level ([5]; 30 minutes after administration (peak)) | blood level ([5]; 4 hours) | blood level (in words) ([5]; by 25 hours) | protection of BCEC (in words) [6]
1 | C[C@]12CC[C@@H]3c4ccc(O)cc4CC[C@H]3[C@@H]1CC[C@H]2O [17α-estradiol] | 55% | 66% | 81% | significant protective effect; also recorded: smaller ischemic areas compared with the sham treated animals in all slices evaluated | – | – | – | – | – | – | – | – | –
2 | C[C@]12CC[C@@H]3c4ccc(O)cc4CC[C@H]3[C@@H]1CC[C@@H]2O [17β-estradiol] | – | – | – | – | 9.8±4.0% | significant protective effect | 31% | significant protection | little difference | 4,610 pg/ml | 2,004 pg/ml | near zero | effective in protecting cultured BCEC
